Here are results for 1 compound from article PMC8325370 (Proceedings of the National Academy of Sciences of the …, 2021).

The target of this assay is T1, homomeric A2 channels (wt CNGA2) (Rattus norvegicus, UniProt Q00195).
T1 sequence (Q00195 1-664): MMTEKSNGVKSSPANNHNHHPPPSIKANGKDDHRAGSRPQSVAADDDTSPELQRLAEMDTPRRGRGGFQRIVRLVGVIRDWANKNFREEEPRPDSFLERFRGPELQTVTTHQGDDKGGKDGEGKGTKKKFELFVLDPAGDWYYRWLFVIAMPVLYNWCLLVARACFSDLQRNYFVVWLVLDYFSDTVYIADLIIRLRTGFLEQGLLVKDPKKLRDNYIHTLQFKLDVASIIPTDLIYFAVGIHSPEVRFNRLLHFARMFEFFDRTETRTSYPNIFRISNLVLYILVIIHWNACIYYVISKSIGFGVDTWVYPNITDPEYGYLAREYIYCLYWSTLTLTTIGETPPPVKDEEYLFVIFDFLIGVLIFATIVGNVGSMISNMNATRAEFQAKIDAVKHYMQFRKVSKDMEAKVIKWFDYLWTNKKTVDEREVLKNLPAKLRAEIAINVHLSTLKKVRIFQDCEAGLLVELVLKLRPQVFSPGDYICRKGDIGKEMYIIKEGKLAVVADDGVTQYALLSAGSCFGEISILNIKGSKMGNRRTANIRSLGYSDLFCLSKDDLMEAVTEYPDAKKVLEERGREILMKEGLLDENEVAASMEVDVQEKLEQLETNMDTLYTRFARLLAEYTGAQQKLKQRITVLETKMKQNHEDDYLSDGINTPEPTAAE
As to the kind of experiment: inside-out patch clamp, macroscopic current. It is filed as biochemical. Conditions: agonist; +100 mV, 150 mM KCl, pH 7.4; Xenopus oocytes.

As to `Nc1nc2c(ncn2[C@@H]2O[C@@H]3COP(=O)(O)O[C@H]3[C@H]2O)c(=O)[nH]1` [cGMP], the EC50 entry is “concentration–activation relationships to homomeric A2 channels”.
